The target of the test is T1, α4β1 integrin (Homo sapiens, UniProt P05556+P13612).
T1 construct: 2.5×10^5 Jurkat cells in the presence or absence of titrated test compounds; endogenous in cells; host or cells: Jurkat cells
Put plainly: α4β1 Integrin-Dependent Jurkat Cell Adhesion to VCAM-Ig. The class given is cell-based. Conditions: inhibition of Jurkat cell adhesion to 2d VCAM-1-hFc. The protocol:
α4β1 Integrin-Dependent Jurkat Cell Adhesion to VCAM-Ig
96 well NUNC plates were coated with F(ab)2 fragment goat anti-human IgG Fcγ-specific antibody [Jackson Immuno Research 109-006-098: 100 μl at 2 μg/ml in 0.1M NaHCO3, pH 8.4], overnight at 4°. The plates were washed (3×) in phosphate-buffered saline (PBS) and then blocked for 1 h in PBS/1% BSA at room temperature on a rocking platform. After washing (3× in PBS) 35 ng/ml of purified 2d VCAM-1-hFc diluted in PBS/1% BSA was added and the plates left for 60 minutes at room temperature on a rocking platform. The plates were washed (3× in PBS) and the assay then performed at 37° for 30 min in a total volume of 200 μl containing 2.5×10^5 Jurkat cells in the presence or absence of titrated test compounds.
Each plate was washed (2×) with medium and the adherent cells were fixed with 100 μl methanol for 10 minutes followed by another wash. 100 μl 0.25% (w/v) Rose Bengal (Sigma R4507) in PBS was added for 5 minutes at room temperature and the plates washed (3×) in PBS. 100 μl 50% (v/v) ethanol in PBS was added and the plates left for 60 min after which the absorbance (570 nm) was measured.

T1 sequence (P13612 34-1032): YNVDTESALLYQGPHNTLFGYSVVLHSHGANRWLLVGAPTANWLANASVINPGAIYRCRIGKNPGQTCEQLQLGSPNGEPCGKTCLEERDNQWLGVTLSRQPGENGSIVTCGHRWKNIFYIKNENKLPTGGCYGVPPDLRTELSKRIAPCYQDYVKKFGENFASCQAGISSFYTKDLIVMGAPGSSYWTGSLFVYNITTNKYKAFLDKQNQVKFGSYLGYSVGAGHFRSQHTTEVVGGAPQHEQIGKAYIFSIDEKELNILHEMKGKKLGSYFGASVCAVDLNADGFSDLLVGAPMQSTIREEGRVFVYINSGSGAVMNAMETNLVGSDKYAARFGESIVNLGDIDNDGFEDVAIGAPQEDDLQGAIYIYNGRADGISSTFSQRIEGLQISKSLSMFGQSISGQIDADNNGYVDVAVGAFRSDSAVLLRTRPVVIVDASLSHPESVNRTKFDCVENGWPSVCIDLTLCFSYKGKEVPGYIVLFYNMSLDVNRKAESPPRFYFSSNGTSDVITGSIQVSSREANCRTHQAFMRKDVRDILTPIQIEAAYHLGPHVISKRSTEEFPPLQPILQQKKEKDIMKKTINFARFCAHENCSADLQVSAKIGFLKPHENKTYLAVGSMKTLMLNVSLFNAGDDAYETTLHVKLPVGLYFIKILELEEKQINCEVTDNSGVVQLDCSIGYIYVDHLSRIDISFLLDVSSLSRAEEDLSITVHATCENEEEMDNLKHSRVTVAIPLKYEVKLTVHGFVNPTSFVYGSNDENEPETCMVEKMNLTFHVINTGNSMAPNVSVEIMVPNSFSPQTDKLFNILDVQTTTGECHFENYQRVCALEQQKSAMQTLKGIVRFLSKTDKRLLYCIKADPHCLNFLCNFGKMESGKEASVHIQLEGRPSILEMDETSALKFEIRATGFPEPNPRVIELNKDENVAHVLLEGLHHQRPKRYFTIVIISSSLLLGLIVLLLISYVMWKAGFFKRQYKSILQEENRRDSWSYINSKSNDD
T1 sequence (P05556 21-798): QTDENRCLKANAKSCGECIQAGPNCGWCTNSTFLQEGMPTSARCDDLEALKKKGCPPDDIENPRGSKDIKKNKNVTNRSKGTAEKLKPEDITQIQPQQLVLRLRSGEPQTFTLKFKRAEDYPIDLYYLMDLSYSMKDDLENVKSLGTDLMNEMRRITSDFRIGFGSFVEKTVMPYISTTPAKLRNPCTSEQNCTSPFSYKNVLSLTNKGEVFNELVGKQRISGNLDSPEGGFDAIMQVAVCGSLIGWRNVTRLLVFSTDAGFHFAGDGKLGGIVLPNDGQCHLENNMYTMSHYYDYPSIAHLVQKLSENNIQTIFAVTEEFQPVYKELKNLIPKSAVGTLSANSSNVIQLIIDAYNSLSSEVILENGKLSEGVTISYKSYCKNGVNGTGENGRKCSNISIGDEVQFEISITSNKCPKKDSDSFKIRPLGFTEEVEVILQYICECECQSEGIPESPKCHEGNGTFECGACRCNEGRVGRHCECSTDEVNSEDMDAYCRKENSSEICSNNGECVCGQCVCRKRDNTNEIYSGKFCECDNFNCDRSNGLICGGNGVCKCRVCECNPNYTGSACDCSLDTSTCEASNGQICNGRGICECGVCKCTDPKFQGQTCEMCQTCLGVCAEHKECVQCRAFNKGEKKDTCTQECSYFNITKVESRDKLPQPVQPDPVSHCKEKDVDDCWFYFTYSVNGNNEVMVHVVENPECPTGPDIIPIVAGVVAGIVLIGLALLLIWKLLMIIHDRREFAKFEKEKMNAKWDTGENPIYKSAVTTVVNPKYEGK

Usually IC50 stands for the midpoint of a concentration-inhibition curve. The low end stands for greater potency, the high end for weaker potency. `O=C(Nc1ccc(C[C@H](NC2=C(Br)C(=O)C23CCCCC3)C(=O)OCCO)cc1)c1c(Cl)cncc1Cl` [Example 1, 2-Hydroxyethyl (2S)-2-(2-bromo-3-oxo-spiro[3,5]non-1-en-1-ylamino)-3-{4-[(3,5-dichlorolsonicotinoyl)amino]phenyl}propanoate] displayed an IC50 of 4 nM. In other words, the single-digit nanomolar range.
